In PMC6479541, “Target Proteins of Phloretin for Its Anti-Inflammatory and Antibacterial Activities Against Propionibacterium acnes-Induced Skin Infection” (Molecules, 2019):

Columns and labels:
[1] = biological target: T1, P. acnes β-ketoacyl acyl carrier protein (ACP) synthase III (KAS III) (Cutibacterium acnes, UniProt P0DW99); format: biochemical
T1 construct: gene fabH; wild-type P. acnes KAS III
T1 sequence (P0DW99 1-332): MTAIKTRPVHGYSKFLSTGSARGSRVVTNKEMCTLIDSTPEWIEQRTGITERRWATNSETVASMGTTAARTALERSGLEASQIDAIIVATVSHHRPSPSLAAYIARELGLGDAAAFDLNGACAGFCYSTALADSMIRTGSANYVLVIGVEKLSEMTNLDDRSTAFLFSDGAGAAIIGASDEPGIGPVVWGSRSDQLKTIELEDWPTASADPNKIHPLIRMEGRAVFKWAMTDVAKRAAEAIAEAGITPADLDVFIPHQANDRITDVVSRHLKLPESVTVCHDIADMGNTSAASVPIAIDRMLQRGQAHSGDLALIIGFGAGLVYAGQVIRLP

JNK1 = biological target: T2, JNK1 (Homo sapiens, UniProt P45983); assay: tryptophan fluorescence quenching titration with purified protein; format: binding
T2 construct: gene MAPK8; C-terminal truncated form of human JNK1α1 (residues 1–364), C-terminal 6His tag
T2 sequence (P45983 1-364): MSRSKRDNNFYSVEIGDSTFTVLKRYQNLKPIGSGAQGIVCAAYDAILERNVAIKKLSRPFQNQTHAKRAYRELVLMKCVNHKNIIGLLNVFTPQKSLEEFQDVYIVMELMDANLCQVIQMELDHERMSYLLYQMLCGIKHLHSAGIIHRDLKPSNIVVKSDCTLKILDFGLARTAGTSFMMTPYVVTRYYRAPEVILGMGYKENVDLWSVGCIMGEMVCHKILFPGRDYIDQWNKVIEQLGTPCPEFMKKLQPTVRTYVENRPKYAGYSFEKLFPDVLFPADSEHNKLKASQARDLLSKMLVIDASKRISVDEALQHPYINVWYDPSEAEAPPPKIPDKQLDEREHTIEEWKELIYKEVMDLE

## O=C(CCc1ccc(O)cc1)c1c(O)cc(O)cc1O [Phloretin, 3-(4-hydroxyphenyl)-1-(2,4,6-trihydroxyphenyl)-1-propanone]
[1]
  % reduction of product: > 66 % reduction of product
JNK1
  Kd: 11.8 µM
